This note sets out measurements from ChEMBL document CHEMBL1909515, “Discovery of a new type inhibitor of human glyoxalase I by myricetin-based 4-point pharmacophore” (Bioorg Med Chem Lett, 2011).

In assay [1] the target is T1, Lactoylglutathione lyase (Homo sapiens, UniProt Q04760). As to the kind of experiment: Inhibition of human recombinant His-tagged glyoxalase 1 expressed in Escherichia coli BL21 assessed as formation of S-D-lactoylglutathione at 100 uM after 5 mins by spectrophotometric method.
Target sequence in this assay (Q04760 2-184 limits assumed): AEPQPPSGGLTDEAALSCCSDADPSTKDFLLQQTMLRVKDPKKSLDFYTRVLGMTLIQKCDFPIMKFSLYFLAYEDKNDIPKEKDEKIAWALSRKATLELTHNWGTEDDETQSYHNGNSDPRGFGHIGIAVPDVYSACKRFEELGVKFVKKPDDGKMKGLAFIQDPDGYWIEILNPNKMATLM
In assay [2] the target is T1, Lactoylglutathione lyase. As to the kind of experiment: Inhibition of recombinant human His-tagged glyoxalase 1 expressed in Escherichia coli BL21 assessed as formation of S-D-lactoylglutathione after 5 mins by spectrophotometric method.
Target sequence in this assay (Q04760 whole entry): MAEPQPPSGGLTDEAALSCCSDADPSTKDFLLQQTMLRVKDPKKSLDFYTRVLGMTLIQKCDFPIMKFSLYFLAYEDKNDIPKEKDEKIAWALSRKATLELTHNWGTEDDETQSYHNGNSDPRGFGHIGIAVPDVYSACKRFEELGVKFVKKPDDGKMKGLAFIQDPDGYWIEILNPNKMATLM
For assay [3], the system named is HL-60. As to the kind of experiment: Antiproliferative activity against human HL60 cells at 300 uM. Format: functional, cell-based.
Assay [4] concerns HL-60. Briefly: induction of apoptosis in human HL60 cells at 300 uM. Format: functional, cell-based.

The source made the active and inactive calls. No cut-off for these calls is given here.

Take `COc1ccc(C(=O)Nc2ccccc2C(=O)O)cc1`: on Lactoylglutathione lyase [1], the inhibition result is “Active”. Further, the IC50 at Lactoylglutathione lyase [2] stood at 93.2 µM.

On to `COc1ccc(/C=C(/CC(=O)O)c2nc3ccccc3s2)cc1`, for which the inhibition entry at Lactoylglutathione lyase [1] is “Active”. Besides, the result with HL-60 [3] and with HL-60 [4] was Active. For the same molecule, the IC50 on Lactoylglutathione lyase [2] was 2 µM.

As for `COc1ccc(C(=O)Nc2sc3c(c2C(=O)O)CCCC3)cc1`, the inhibition entry on Lactoylglutathione lyase [1] is “Active”. Besides, on Lactoylglutathione lyase [2], the IC50 was 54.6 µM.

One may read the IC50 as the midpoint of a concentration-inhibition curve.
